Assay results as given in patent US9371307B2, “Serine protease inhibitors” (THE JOHNS HOPKINS UNIVERSITY, priority 2011, dated 2016).
Read-outs that look alike come from different tables or passages of the source.

Key:
Assay type in all cases: biochemical
[1] = biological target: DPPIV (Homo sapiens, UniProt P27487); experiment: Selectivity of chymase inhibitors against DPPIV; conditions: ratio of Ki enzyme/Ki chymase
[2] = biological target: Thrombin (Homo sapiens, UniProt P00734); experiment: Selectivity of chymase inhibitors against thrombin; conditions: ratio of Ki enzyme/Ki chymase
Description: (§1) As provided in Table 1, hereinabove in Example 2, selectivity was tested by measuring the inhibitory activity of ef-rs-03-075 and analogs against other serine proteases, including thrombin, trypsin, and tryrptase.

[3] = biological target: T1, human chymase (Homo sapiens, UniProt P23946); experiment: Inhibition of chymase (Ki; Lineweaver-Burk double reciprocal plots)
T1 construct: In its active form within the secretory granules of mast cells, human chymase contains 226 amino acid residues
T1 sequence (P23946 22-247): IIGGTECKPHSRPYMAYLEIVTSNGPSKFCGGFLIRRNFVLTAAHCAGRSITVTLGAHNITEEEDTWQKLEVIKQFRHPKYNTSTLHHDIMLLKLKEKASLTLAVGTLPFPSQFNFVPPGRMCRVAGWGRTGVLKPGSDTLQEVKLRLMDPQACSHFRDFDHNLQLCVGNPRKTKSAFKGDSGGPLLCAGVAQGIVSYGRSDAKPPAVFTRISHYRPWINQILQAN

[4] = biological target: Tryptase (Homo sapiens, UniProt Q15661); experiment: Selectivity of chymase inhibitors against tryptase; conditions: ratio of Ki enzyme/Ki chymase
Chain of Tryptase (Q15661 31-275): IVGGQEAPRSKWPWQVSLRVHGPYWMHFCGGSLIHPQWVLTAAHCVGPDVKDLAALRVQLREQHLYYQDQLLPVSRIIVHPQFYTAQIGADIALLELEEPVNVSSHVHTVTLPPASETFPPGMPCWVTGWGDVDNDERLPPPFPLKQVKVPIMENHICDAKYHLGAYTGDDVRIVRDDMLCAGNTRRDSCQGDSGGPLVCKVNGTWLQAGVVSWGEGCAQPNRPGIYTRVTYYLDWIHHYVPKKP
Description: as §1

[5] = system: Trypsin; experiment: Selectivity of chymase inhibitors against trypsin; conditions: ratio of Ki enzyme/Ki chymase
Description: as §1

Chain of DPPIV (P27487 whole entry, species assumed): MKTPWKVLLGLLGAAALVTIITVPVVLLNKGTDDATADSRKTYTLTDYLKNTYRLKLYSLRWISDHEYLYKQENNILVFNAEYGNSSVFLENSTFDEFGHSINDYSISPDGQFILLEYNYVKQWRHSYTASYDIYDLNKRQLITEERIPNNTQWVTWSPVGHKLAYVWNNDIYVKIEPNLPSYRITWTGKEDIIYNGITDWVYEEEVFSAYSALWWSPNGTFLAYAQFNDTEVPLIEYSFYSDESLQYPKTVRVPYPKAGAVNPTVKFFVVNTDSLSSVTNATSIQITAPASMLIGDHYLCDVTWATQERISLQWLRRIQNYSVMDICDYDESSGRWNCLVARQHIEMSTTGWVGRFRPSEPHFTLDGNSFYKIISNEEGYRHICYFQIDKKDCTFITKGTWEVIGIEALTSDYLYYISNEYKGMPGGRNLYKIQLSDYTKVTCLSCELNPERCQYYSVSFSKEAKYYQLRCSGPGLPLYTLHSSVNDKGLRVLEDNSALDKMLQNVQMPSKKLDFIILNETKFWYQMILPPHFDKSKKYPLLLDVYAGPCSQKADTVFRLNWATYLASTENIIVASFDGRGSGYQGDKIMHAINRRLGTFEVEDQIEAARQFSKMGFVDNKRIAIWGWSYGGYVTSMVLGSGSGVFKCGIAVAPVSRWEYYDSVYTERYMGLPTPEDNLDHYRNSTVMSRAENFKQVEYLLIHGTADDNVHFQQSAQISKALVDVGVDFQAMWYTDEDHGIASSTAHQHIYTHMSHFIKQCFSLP

Compound | Selectivity of chymase inhibitors: DPPIV [1] | Selectivity of chymase inhibitors: Thrombin [2] | Ki ([3]; read-out: Chymase Ki) [nM] | Selectivity of chymase inhibitors: Tryptase [4] | Selectivity of chymase inhibitors: Trypsin [5] | inhibitory mechanism ([3]; double reciprocal plot of substrate concentration vs. reaction velocity, various inhibitor concentrations (FIG. 4)) | Ki ([3]; value given in the description text as 'high affinity', read-out: affinity) [nM]
Cc1cccc(CN(c2cccc(Cl)c2)S(=O)(=O)/C=C/c2cccc(Cl)c2)c1 [ef-rs-08-049] | 170 | 13 | 1110 ± 220 | >350 | – | – | –
O=S(=O)(/C=C/c1cccc(Cl)c1)N(Cc1ccsc1)c1cccc(Cl)c1 [ef-rs-03-038-P1] | 34 | >60 | 1570 ± 390 | >240 | – | – | –
O=S(=O)(/C=C/c1cccc(Br)c1)N(Cc1ccsc1)c1cccc(Cl)c1 [ef-rs-03-039-P1] | 17 | >60 | 1340 ± 390 | >310 | – | – | –
O=S(=O)(/C=C/c1cccc(Br)c1)N(Cc1ccccc1)c1cccc(Cl)c1 [ef-rs-03-015-P2] | >100 | >200 | 1580 ± 130 | >260 | – | – | –
O=S(=O)(/C=C/c1cccc(Cl)c1)N(Cc1cccc(Cl)c1)c1cccc(Cl)c1 [ef-rs-03-075, (E)-N-(3-chlorobenzyl)-N,2-bis(3-chlorophenyl)ethenesulfonamide] | 37 | >320 | 959 ± 42 | >410 | >110 | competitive inhibition | 544
O=S(=O)(/C=C/c1cccc(Cl)c1)N(Cc1ccccc1)c1cccc(Cl)c1 [ef-rs-03-019-P4] | >100 | >200 | 1320 ± 280 | >275 | – | – | –
O=S(=O)(/C=C/c1cccc(Cl)c1)N(Cc1cccc(Br)c1)c1cccc(Cl)c1 [ef-rs-08-050] | 40 | 45 | 1220 ± 190 | >320 | – | – | –

More lines, now with the values ahead:

Selectivity of chymase inhibitors: DPPIV [1] | Selectivity of chymase inhibitors: Thrombin [2] | Ki ([3]; read-out: Chymase Ki) [nM] | Selectivity of chymase inhibitors: Tryptase [4] | Selectivity of chymase inhibitors: Trypsin [5] | inhibitory mechanism ([3]; double reciprocal plot of substrate concentration vs. reaction velocity, various inhibitor concentrations (FIG. 4)) | Ki ([3]; value given in the description text as 'high affinity', read-out: affinity) [nM] | Compound
70 | >50 | 1190 ± 120 | >80 | – | – | – | O=S(=O)(/C=C/c1cccc(Cl)c1)N(Cc1cccc(F)c1)c1cccc(Cl)c1 [ef-rs-08-057]
16 | 70 | 903 ± 150 | >110 | – | – | – | O=S(=O)(/C=C/c1cccc(Cl)c1)N(Cc1ccc(Cl)c(Cl)c1)c1cccc(Cl)c1 [ef-rs-08-051]
10 | >75 | 978 ± 87 | >100 | – | – | – | O=S(=O)(/C=C/c1cccc(Cl)c1)N(Cc1cccc(Cl)c1)c1cccc(OCc2cccc(Cl)c2)c1 [ef-rs-08-052]
80 | 20 | 1260 ± 200 | >310 | – | – | – | O=S(=O)(/C=C/c1cccc(Cl)c1)N(Cc1ccc(Cl)cc1)c1cccc(Cl)c1 [ef-rs-08-056]
